Reference: patent US20230146455A1, “TREATMENT OF INFLAMMATORY DISEASES WITH PEPTIDES AND PHARMACEUTICAL COMPOSITIONS” (Yuyu Pharma, Inc., priority 2020, published 2023)
Values joined by “and” are separate entries in the source; they are usually repeats but may differ in a detail not shown here. Equal values may be shown once. Where a SMILES comes first, the peptide text is derived from it. [ ]: non-standard residue; d: D form. Hyp = O=C(O)[C@@H]1C[C@@H](O)CN1

How the values were obtained:
IFN-gamma = assay: Example 9 Luminex, LPS hPBMCs: IFN-gamma; assay type: cell-based, human
Protocol: (§1) Treatment Human PBMCs were pretreated with YY-101, YDE-011 and YDE-043 or reference compound; Xiidra® at various concentration (ranging from 1 nM to 100 uM) for 2 h before stimulation. An equal volume of 0.5% DMSO was used as a vehicle control. Then, the cells were treated with LPS at 5 ug/ml. The supernatants from treated cells were harvested at 24 h and placed in a 96 well for Luminex cytokine & chemokine profiling using a Luminex 200 multiplex assay (Luminex; R&D system, USA).
(§2) The main study arm with triplicate wells per group in a 24-well plate: • 1. Blank • 2. PBMC: 0.5% DMSO • 3. PBMC+LPS (5 ug/ml) • 4. PBMC+YY-101 100 uM • 5. PBMC+YY-101 10 uM • 6. PBMC+YY-101 1 uM • 7. PBMC+YY-101 0.1 uM • 8. PBMC+YY-101 0.01 uM • 9. PBMC+LPS (5 ug/ml)+Xiidra®100 uM • 10. PBMC+LPS (5 ug/ml)+Xiidra® 10 uM • 11. PBMC+LPS (5 ug/ml)+Xiidra® 1 uM • 12. PBMC+LPS (5 ug/ml)+Xiidra®0.1 uM • 13. PBMC+LPS (5 ug/ml)+Xiidra®0.01 uM • 14. PBMC+LPS (5 ug/ml)+Xiidra®0.001 uM • 15. PBMC+LPS (5 ug/ml)+YY-101 100 uM • 16. PBMC+LPS (5 ug/ml)+YY-101 10 uM • 17. PBMC+LPS (5 ug/ml)+YY-101 1 uM • 18. PBMC+LPS (5 ug/ml)+YY-101 0.1 uM • 19. PBMC+LPS (5 ug/ml)+YY-101 0.01 uM • 20. PBMC+LPS (5 ug/ml)+YY-101 0.001 uM • 21. PBMC+LPS (5 ug/ml)+YDE-011 100 uM • 22. PBMC+LPS (5 ug/ml)+YDE-011 10 uM • 23. PBMC+LPS (5 ug/ml)+YDE-011 1 uM • 24. PBMC+LPS (5 ug/ml)+YDE-011 0.1 uM • 25. PBMC+LPS (5 ug/ml)+YDE-011 0.01 uM • 26. PBMC+LPS (5 ug/ml)+YDE-011 0.001 uM • 27. PBMC+LPS (5 ug/ml)+YDE-043 100 uM • 28. PBMC+LPS (5 ug/ml)+YDE-043 10 uM • 29. PBMC+LPS (5 ug/ml)+YDE-043 1 uM • 30. PBMC+LPS (5 ug/ml)+YDE-043 0.1 uM • 31. PBMC+LPS (5 ug/ml)+YDE-043 0.01 uM • 32. PBMC+LPS (5 ug/ml)+YDE-043 0.001 uM
(§3) Multiplex assay was used to measure 30 cytokines and chemokines. The 1:2, 1:10 and 1:200 diluted cell supernatant and serial dilution of the standard were dispensed into a 96 well plate at 50 ul/well. Then, the pre-mixed cocktail of antibody-coated magnetic beads was dispensed at 50 ul/well and incubated at room temperature for 2 h in a horizontal orbital microplate shaker at 800±500 rpm. The beads were washed using a magnetic device to prevent loss. The biotin-antibody was dispensed in 50 ul of each well and incubated at room temperature for 1 h in a shaker at 800±500 rpm. After washing, streptavidin-PE was added at 50 ul/well and incubated at room temperature for 30 min in a shaker under the same conditions. Finally, after washing, wash buffer (100 ul/well) was added to the plate and incubated in a shaker for 2 min. The Luminex™ 200 setting were set according to the manufacturer's protocol. The data was calculated with a standard five-parameter logistic nonlinear regression analysis of the data (xPonent software 4.2, USA). The levels of cytokine/chemokine are normalized to the live cell counts (1×10^5 cells/mL) and presented as concentrations per mL (pg/mL or ng/mL).

CCL20/MIP-3 alpha = assay: Example 9 Luminex, LPS hPBMCs: CCL20/MIP-3 alpha; assay type: cell-based, human
Protocol: as §1, §2, §3

[1] = PBMC + LPS(5 ug/ml) + test article 0.001 uM, Mean
[2] = PBMC + LPS(5 ug/ml) + test article 0.001 uM, single replicates
[3] = PBMC + LPS(5 ug/ml) + test article 0.01 uM, Mean
[4] = PBMC + LPS(5 ug/ml) + test article 0.01 uM, single replicates
[5] = PBMC + LPS(5 ug/ml) + test article 0.1 uM, Mean
[6] = PBMC + LPS(5 ug/ml) + test article 0.1 uM, single replicates
[7] = PBMC + LPS(5 ug/ml) + test article 1 uM, Mean
[8] = PBMC + LPS(5 ug/ml) + test article 1 uM, single replicates
[9] = PBMC + LPS(5 ug/ml) + test article 10 uM, Mean
[10] = PBMC + LPS(5 ug/ml) + test article 10 uM, single replicates
[11] = PBMC + LPS(5 ug/ml) + test article 100 uM, Mean
[12] = PBMC + LPS(5 ug/ml) + test article 100 uM, single replicates
[13] = PBMC + test article 0.01 uM, no LPS, Mean
[14] = PBMC + test article 0.01 uM, no LPS, single replicates
[15] = PBMC + test article 0.1 uM, no LPS, Mean
[16] = PBMC + test article 0.1 uM, no LPS, single replicates
[17] = PBMC + test article 1 uM, no LPS, Mean
[18] = PBMC + test article 1 uM, no LPS, single replicates
[19] = PBMC + test article 10 uM, no LPS, Mean
[20] = PBMC + test article 10 uM, no LPS, single replicates
[21] = PBMC + test article 100 uM, no LPS, Mean
[22] = PBMC + test article 100 uM, no LPS, single replicates
[23] = PBMC + LPS(5 ug/ml) + test article 0.001 uM, individual replicate
[24] = PBMC + LPS(5 ug/ml) + test article 0.01 uM, individual replicate

CC(C)C[C@H](NC(=O)CNC(=O)[C@H](CC(=O)O)NC(=O)[C@H](CCC(N)=O)NC(=O)CNC(=O)[C@@H]1C[C@@H](O)CN1)C(=O)N[C@@H](C)C(=O)NCC(=O)N1CCC[C@H]1C(=O)N[C@@H](CCCCN)C(=O)O [YY-101] (H-[Hyp]GQDGLAGPK-OH; N-terminus and C-terminus assumed)
Concentration (IFN-gamma) (IFN-gamma; [1]): 2439.1 pg/mL
conc/live cell (IFN-gamma) (IFN-gamma; [1]): 378.6 pg/10^5
Concentration (IFN-gamma) (IFN-gamma; [2]): 2345.3 pg/mL and 2706.6 pg/mL and 2265.5 pg/mL
conc/live cell (IFN-gamma) (IFN-gamma; [2]): 411.5 pg/10^5 and 381.2 pg/10^5 and 343.3 pg/10^5
Concentration (IFN-gamma) (IFN-gamma; [3]): 3133.1 pg/mL
conc/live cell (IFN-gamma) (IFN-gamma; [3]): 507.8 pg/10^5
Concentration (IFN-gamma) (IFN-gamma; [4]): 3435.7 pg/mL and 3322.0 pg/mL and 2641.6 pg/mL
conc/live cell (IFN-gamma) (IFN-gamma; [4]): 536.8 pg/10^5 and 553.7 pg/10^5 and 433.0 pg/10^5
Concentration (IFN-gamma) (IFN-gamma; [5]): 1841.4 pg/mL
conc/live cell (IFN-gamma) (IFN-gamma; [5]): 313.6 pg/10^5
Concentration (IFN-gamma) (IFN-gamma; [6]): 2024.2 pg/mL and 1601.1 pg/mL and 1899.0 pg/mL
conc/live cell (IFN-gamma) (IFN-gamma; [6]): 326.5 pg/10^5 and 307.9 pg/10^5 and 306.3 pg/10^5
Concentration (IFN-gamma) (IFN-gamma; [7]): 2318.4 pg/mL
conc/live cell (IFN-gamma) (IFN-gamma; [7]): 355.2 pg/10^5
Concentration (IFN-gamma) (IFN-gamma; [8]): 2480.1 pg/mL and 2437.0 pg/mL and 2038.3 pg/mL
conc/live cell (IFN-gamma) (IFN-gamma; [8]): 393.7 pg/10^5 and 343.2 pg/10^5 and 328.8 pg/10^5
Concentration (IFN-gamma) (IFN-gamma; [9]): 2654.7 pg/mL
conc/live cell (IFN-gamma) (IFN-gamma; [9]): 406.4 pg/10^5
Concentration (IFN-gamma) (IFN-gamma; [10]): 3058.1 pg/mL and 2593.6 pg/mL and 2312.4 pg/mL
conc/live cell (IFN-gamma) (IFN-gamma; [10]): 509.7 pg/10^5 and 405.2 pg/10^5 and 304.3 pg/10^5
Concentration (IFN-gamma) (IFN-gamma; [11]): 1939.0 pg/mL
conc/live cell (IFN-gamma) (IFN-gamma; [11]): 333.7 pg/10^5
Concentration (IFN-gamma) (IFN-gamma; [12]): 1943.2 pg/mL and 2122.4 pg/mL and 1751.5 pg/mL
conc/live cell (IFN-gamma) (IFN-gamma; [12]): 308.4 pg/10^5 and 342.3 pg/10^5 and 350.3 pg/10^5
Concentration (IFN-gamma) (IFN-gamma; [13]): 20.8 pg/mL
conc/live cell (IFN-gamma) (IFN-gamma; [13]): 4.2 pg/10^5
Concentration (IFN-gamma) (IFN-gamma; [14]): 12.5 pg/mL and 29.1 pg/mL
conc/live cell (IFN-gamma) (IFN-gamma; [14]): 2.4 pg/10^5 and 6.1 pg/10^5
Concentration (IFN-gamma) (IFN-gamma; [15]): 20.8 pg/mL
conc/live cell (IFN-gamma) (IFN-gamma; [15]): 3.9 pg/10^5
Concentration (IFN-gamma) (IFN-gamma; [16]): 12.5 pg/mL and 29.1 pg/mL
conc/live cell (IFN-gamma) (IFN-gamma; [16]): 2.8 pg/10^5 and 5.0 pg/10^5
Concentration (IFN-gamma) (IFN-gamma; [17]): 18.1 pg/mL
conc/live cell (IFN-gamma) (IFN-gamma; [17]): 3.3 pg/10^5
Concentration (IFN-gamma) (IFN-gamma; [18]): 12.5 pg/mL and 23.7 pg/mL
conc/live cell (IFN-gamma) (IFN-gamma; [18]): 2.3 pg/10^5 and 4.3 pg/10^5
Concentration (IFN-gamma) (IFN-gamma; [19]): 50.9 pg/mL
conc/live cell (IFN-gamma) (IFN-gamma; [19]): 8.1 pg/10^5
Concentration (IFN-gamma) (IFN-gamma; [20]): 67.3 pg/mL and 34.4 pg/mL
conc/live cell (IFN-gamma) (IFN-gamma; [20]): 10.5 pg/10^5 and 5.6 pg/10^5
Concentration (IFN-gamma) (IFN-gamma; [21]): 36.8 pg/mL
conc/live cell (IFN-gamma) (IFN-gamma; [21]): 5.6 pg/10^5
Concentration (IFN-gamma) (IFN-gamma; [22]): 49.9 pg/mL and 23.7 pg/mL
conc/live cell (IFN-gamma) (IFN-gamma; [22]): 7.8 pg/10^5 and 3.4 pg/10^5
Concentration, CCL20/MIP-3 alpha (CCL20/MIP-3 alpha; [1]): 315.3 pg/mL
MFI, CCL20/MIP-3 alpha (CCL20/MIP-3 alpha; [1]): 346.7
conc/live cell, CCL20/MIP-3 alpha (CCL20/MIP-3 alpha; [1]): 49.1 pg/10^5
Concentration, CCL20/MIP-3 alpha (CCL20/MIP-3 alpha; [23]): 301.0 pg/mL and 289.9 pg/mL and 355.1 pg/mL
MFI, CCL20/MIP-3 alpha (CCL20/MIP-3 alpha; [23]): 329.0 and 315.5 and 395.5
conc/live cell, CCL20/MIP-3 alpha (CCL20/MIP-3 alpha; [23]): 52.8 pg/10^5 and 40.8 pg/10^5 and 53.8 pg/10^5
Concentration, CCL20/MIP-3 alpha (CCL20/MIP-3 alpha; [3]): 377.7 pg/mL
MFI, CCL20/MIP-3 alpha (CCL20/MIP-3 alpha; [3]): 423.7
conc/live cell, CCL20/MIP-3 alpha (CCL20/MIP-3 alpha; [3]): 61.2 pg/10^5
Concentration, CCL20/MIP-3 alpha (CCL20/MIP-3 alpha; [24]): 383.7 pg/mL and 338.9 pg/mL and 410.6 pg/mL
MFI, CCL20/MIP-3 alpha (CCL20/MIP-3 alpha; [24]): 431.0 and 375.5 and 464.5
